Results from patent US20240124528A1, “ANTAGONIST OF INTERLEUKIN-17B RECEPTOR (IL-17RB) AND USE THEREOF” (Academia Sinica, priority 2020, published 2024).

System: pancreatic cancer cells expressing IL-17RB
Assay: RT-qPCR of cytokine gene expression (CCL20, TFF1) after peptide pretreatment and rIL-17B
Assay type: cell-based, human
Conditions: CFPAC1 and PDX-derived cells; peptide 50 ng/ml 30 mins, then rIL-17B 2 hrs
Excerpt: FIGS. 7A to 7J include charts showing that disruption of the interaction between IL-17RB and MLK4 by the loop peptide blocks oncogenic progression. (FIG. 7A) Peptides TAT48-57 (Control) (SEQ ID NO: 21) and TAT-IL-17RB403-416 (Loop) (SEQ ID NO: 30) used for the following experiments. (FIG. 7B) Immunoblotting analysis of IL-17RB binding to MLK4 with Loop peptide treatment. 293T cells expressing Flag-MLK4 and HA-IL-17RB were pretreated with the control and loop peptides with different dose (0, 0.1, 1, 10, 50, 100 ng/ml) for 30 mins, and then added rIL-17B for 30 mins. […] CCL20 and TFF/mRNA expression of these cells were measured by RT-qPCR (n=3) (FIG. 7D), the same cells were for invasion assay (n=4) (FIG. 7E) and SACF assay (n=4) (FIG. 7F). […] (FIG. 7I) The experimental EKP mice (n=7 for each group) were euthanized at Day 56, and the metastatic tumor nodules in the lungs were counted. […]
FIGS. 19A to 19D include charts showing that treatment with the loop peptide suppresses aggressive behavior of patient-derived pancreatic tumor cells. […] (FIG. 19C and FIG. 19D) These cells were measured by RT-qPCR for the cytokine gene mRNA expression (n=3), or for Invasion assay (n=4) (FIG. 19C) and SACF assay (n=4) (FIG. 19D). […]

In the case of “RKKRRQRRRVCDGTCGKSEGSPS (IL-17RB inhibitory peptide, fusion protein) [loop peptide]”, the “cytokine gene expression (CCL20, TFF1 mRNA)” value is reported as “diminished”.
